Source: US12421254B2, “KRAS modulators and uses thereof” (Quanta Therapeutics, Inc., priority 2023, dated 2025)
Where two headings read alike, the source gives them in different places.

How the values were obtained:
[1] = biological target: GST-tagged KRAS-G12V (2-169) (Homo sapiens, UniProt P01116, G12V); assay: Nucleotide exchange assay (NEA), SOS-mediated, HTRF, KRAS G12V; type: biochemical; conditions: Table 4; IC50 extracted at 90 min; 80 nM SOS
Text: (§1) This activity is tightly regulated by GTPase activating proteins (GAPs) and guanine nucleotide exchange factors (GEFs). GEFs, such as SOS1/2, activate Ras proteins by exchanging GDP for GTP, thus returning Ras to its active conformation (Simanshu, Nissley, & McCormick, 2017). […] Homogenous time resolved fluorescence (HTRF) was used to detect SOS-mediated binding of a fluorescent GTP analog, GTP-DY-647P1 (Jena Biosciences NU-820-647P1) to GST-tagged KRAS-G12D (2-169) or to GST-tagged KRAS-G12V (2-169, Reaction Biology, MSC-11-540).
(§2) GST-tagged KRAS-G12D (2-169) and anti-GST MAb Tb Cryptate Gold (CisBio 61GSTTLB) were diluted into assay buffer (20 mM HEPES, pH 7.3, 150 mM NaCl, 5 mM MgCl2, 0.05% BSA 0.0025% NP40, 1 mM DTT) to prepare a 2.5× donor solution. 5× compound was added to the protein mixture and incubated for 1 h at RT. 2.5× acceptor solution containing SOS1cat (564-1049, Reaction Biology MSC-11-502) and GTP-DY-647P1 were then added to the donor KRAS mixture such that the final concentration of the reaction contained 0.25 nM GST-tagged KRAS-G12D (2-169), 20 nM SOScat, and 150 nM GTP-DY-647P1. The reaction was monitored using at RT with the Envision multimode plate reader (Ex/Em 337/665, […]) up to 90 minutes at 5 minute intervals. To monitor KRAS-G12V SOS-mediated nucleotide exchange, 80 nM SOS was added to reaction instead of 20 nM. All other components were the same as previously described. Data was blanked to reactions without SOS1 and % inhibition was calculated such that DMSO only =0% and blank=100%. Curve fitting was done using a 4 parameter fit. Reported IC50 values were extracted at 30 min and 90 min for the KRAS-G12D and KRAS-G12V assays, respectively.

[2] = biological target: GST-tagged KRAS-G12D (2-169) (Homo sapiens, UniProt P01116, G12D); assay: Nucleotide exchange assay (NEA), SOS-mediated, HTRF, KRAS G12D; type: biochemical; conditions: IC50 extracted at 30 min, 20 nM SOScat
Sequence of GST-tagged KRAS-G12D (2-169) (P01116 2-169 isoform P01116-2 G12D): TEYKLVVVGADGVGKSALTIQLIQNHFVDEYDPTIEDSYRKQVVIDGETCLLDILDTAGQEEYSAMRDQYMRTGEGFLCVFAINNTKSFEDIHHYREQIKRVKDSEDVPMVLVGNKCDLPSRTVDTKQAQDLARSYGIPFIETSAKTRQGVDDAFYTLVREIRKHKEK
Text: as §1, §2
NEA KRAS G12D IC50 (uM) values of selected compounds are depicted in Table 2 with compounds having a value <0.01 uM as ++++; ≥0.01 uM to 0.1 uM as +++; ≥0.1 uM to 1 uM as ++; ≥1 uM to 20 uM as +; and ≥20 uM as NA.

[3] = Table 4, read-out: NEA G12D IC50

Sequence of GST-tagged KRAS-G12V (2-169) (P01116 2-169 isoform P01116-2 G12V): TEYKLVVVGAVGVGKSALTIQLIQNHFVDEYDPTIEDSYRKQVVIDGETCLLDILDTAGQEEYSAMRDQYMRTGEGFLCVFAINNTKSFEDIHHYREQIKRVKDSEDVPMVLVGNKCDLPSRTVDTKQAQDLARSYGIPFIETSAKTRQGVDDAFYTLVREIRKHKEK

Q: Which IC50 [1] does the source give for C[C@@]1(O)CCCN(c2nc(OC[C@]34CCCN3[C@H](COc3cc(C(F)(F)F)ncn3)CC4)nc(N3CC4(C3)SCc3sc(N)c(C#N)c34)n2)C1 (racemic) [Compound 252, 2-amino-1′-[4-[(3R)-3-hydroxy-3-methyl-1-piperidyl]-6-[[(3SR,8RS)-3-[[6-(trifluoromethyl)pyrimidin-4-yl]oxymethyl]-1,2,3,5,6,7-hexahydropyrrolizin-8-yl]methoxy]-1,3,5-triazin-2-yl]spiro[6H-thieno[3,4-b]thiophene-4,3′-azetidine]-3-carbonitrile] here?
A: < 10 nM

Q: And the IC50 [2, 3]?
A: < 0.01 µM

Q: How did the IC50 [1] turn out when CCN(c1nc(OCC2(CN(C)C)CCCN2)nc(N2CC3(C2)SCc2sc(N)c(C#N)c23)n1)[C@H](C)c1cccnc1N (stereo partly drawn) [Compound 225, 2-amino-1′-[4-[[(1R)-1-(2-amino-3-pyridyl)ethyl]-ethyl-amino]-6-[[2-[(dimethylamino)methyl]pyrrolidin-2-yl]methoxy]-1,3,5-triazin-2-yl]spiro[6H-thieno[3,4-b]thiophene-4,3′-azetidine]-3-carbonitrile] was run?
A: < 10 nM

Q: And the IC50 [2, 3]?
A: 0.01 to 0.1 µM

Q: Which results are given for CCN(c1nc(OC[C@@H]2CC[C@@H]3CN(C)CCN32)nc(N2CC3(C2)SCc2sc(N)c(C#N)c23)n1)[C@H](C)c1cccnc1N (mixture of isomers) [Compound 216, 1′-[4-[[(6SR,8aRS)-2-methyl-3,4,6,7,8,8a-hexahydro-1H-pyrrolo[1,2-a]pyrazin-6-yl]methoxy]-6-[[(1R)-1-(2-amino-3-pyridyl)ethyl]-ethyl-amino]-1,3,5-triazin-2-yl]-2-amino-spiro[6H-thieno[3,4-b]thiophene-4,3′-azetidine]-3-carbonitrile]?
A: IC50 [1]: < 10 nM; IC50 [2, 3]: 0.1 to 1 µM

Q: Which results are given for CC(c1nccnc1O)N(C)c1nc(OC[C@@]23CCCN2C[C@H](F)C3)nc(N2CC3(CCc4sc(N)c(C#N)c43)C2)n1 (stereo partly drawn) [Compound 150, 2-amino-1′-[4-[[(2R,8S)-2-fluoro-1,2,3,5,6,7-hexahydropyrrolizin-8-yl]methoxy]-6-[1-(3-hydroxypyrazin-2-yl)ethyl-methyl-amino]-1,3,5-triazin-2-yl]spiro[5,6-dihydrocyclopenta[b]thiophene-4,3′-azetidine]-3-carbonitrile]?
A: IC50 [1]: 100 to 1000 nM; IC50 [2, 3]: 1 to 20 µM

Q: Which IC50 [1] does the source give for CC(c1ccccc1N)N(C)c1nc(OC[C@@]23CCCN2C[C@H](F)C3)nc(N2CC3(CCc4sc(N)c(C#N)c43)C2)n1 (stereo partly drawn) [Compound 121, 2′-amino-1-(4-((1-(2-aminophenyl)ethyl)(methyl)amino)-6-(((2R,7aS)-2-fluorotetrahydro-1H-pyrrolizin-7a(5H)-yl)methoxy)-1,3,5-triazin-2-yl)-5′,6′-dihydrospiro[azetidine-3,4′-cyclopenta[b]thiophene]-3′-carbonitrile] here?
A: ≥ 20000 nM

Q: What about the IC50 [2, 3] of the same compound?
A: ≥ 20 µM

Q: Which IC50 [1] does the source give for CC(c1cccnc1N)N(CCO)c1nc(OC[C@@]23CCCN2C[C@H](F)C3)nc(N2CC3(CCc4sc(N)c(C#N)c43)C2)n1 (stereo partly drawn) [Compound 110, 2-amino-1′-[4-[1-(2-amino-3-pyridyl)ethyl-(2-hydroxyethyl)amino]-6-[[(2R,8S)-2-fluoro-1,2,3,5,6,7-hexahydropyrrolizin-8-yl]methoxy]-1,3,5-triazin-2-yl]spiro[5,6-dihydrocyclopenta[b]thiophene-4,3′-azetidine]-3-carbonitrile] here?
A: < 10 nM

Q: What about the IC50 [2, 3] of the same compound?
A: < 0.01 µM

Q: With CCN(c1nc(OCC2(COC)CCCC2)nc(N2CC3(C2)SCc2sc(N)c(C#N)c23)n1)[C@H](C)c1cccnc1N [Compound 222, 2-amino-1′-[4-[[(1R)-1-(2-amino-3-pyridyl)ethyl]-ethyl-amino]-6-[[1-(methoxymethyl)cyclopentyl]methoxy]-1,3,5-triazin-2-yl]spiro[6H-thieno[3,4-b]thiophene-4,3′-azetidine]-3-carbonitrile] as the compound, how does the IC50 [1] read?
A: 100 to 1000 nM

Q: And the IC50 [2, 3]?
A: 1 to 20 µM

Q: For N#Cc1c(N)sc2c1C1(CC2)CN(c2nc(OC[C@@]34CCCN3C[C@H](F)C4)nc(O[C@@H]3COC[C@H]3O)n2)C1 (racemic) [Compound 80, 2-amino-1′-[4-[[(2R,8S)-2-fluoro-1,2,3,5,6,7-hexahydropyrrolizin-8-yl]methoxy]-6-[rac-(3R,4R)-4-hydroxytetrahydrofuran-3-yl]oxy-1,3,5-triazin-2-yl]spiro[5,6-dihydrocyclopenta[b]thiophene-4,3′-azetidine]-3-carbonitrile; 2,2,2-trifluoroacetic acid], which IC50 [1] is on record?
A: 1000 to 20000 nM

Q: With N#Cc1c(N)sc2c1C1(CN(c3nc(OC[C@@]45CCCN4C[C@H](F)C5)nc(N4[C@H]5CC[C@@H]4C(=O)C5)n3)C1)SC2 [Compound 280, 2-amino-1′-[4-[[(2R,8S)-2-fluoro-1,2,3,5,6,7-hexahydropyrrolizin-8-yl]methoxy]-6-(2-oxo-7-azabicyclo[2.2.1]heptan-7-yl)-1,3,5-triazin-2-yl]spiro[6H-thieno[3,4-b]thiophene-4,3′-azetidine]-3-carbonitrile] as the compound, how does the IC50 [2, 3] read?
A: 0.01 to 0.1 µM

Q: Which IC50 [1] does the source give for C[C@@]1(O)CCCN(c2nc(OC[C@@]34CCCN3[C@H](COc3cc(C(F)(F)F)ncn3)CC4)nc(N3CC4(C3)SCc3sc(N)c(C#N)c34)n2)C1 (racemic) [Compound 253, 2-amino-1′-[4-[(3R)-3-hydroxy-3-methyl-1-piperidyl]-6-[[(3SR,8SR)-3-[[6-(trifluoromethyl)pyrimidin-4-yl]oxymethyl]-1,2,3,5,6,7-hexahydropyrrolizin-8-yl]methoxy]-1,3,5-triazin-2-yl]spiro[6H-thieno[3,4-b]thiophene-4,3′-azetidine]-3-carbonitrile] here?
A: < 10 nM

Q: How did the IC50 ([2]; Table 2, read-out: NEA-G12D (uM) IC50) turn out when N#Cc1c(N)sc2c1C1(CCC2)CN(c2nc(OCC3(CN4CCOCC4)CC3)nc(N3CCC[C@]4(C3)NC(=O)NC4=O)n2)C1 [Compound 6, 2-amino-1′-[4-[[1-(morpholinomethyl)cyclopropyl]methoxy]-6-[(5R)-2,4-dioxo-1,3,9-triazaspiro[4.5]decan-9-yl]-1,3,5-triazin-2-yl]spiro[6,7-dihydro-5H-benzothiophene-4,3′-azetidine]-3-carbonitrile] was run?
A: 0.01 to 0.1 µM

Q: CC1(O)CCCN(c2nc(OCC34CCCN3C(COc3cc(C(F)(F)F)ncn3)CC4)nc(N3CC4(C3)SCc3sc(N)c(C#N)c34)n2)C1 (single isomer, unassigned) [Compound 256B] was tested. Which IC50 [2, 3] did it give?
A: < 0.01 µM

Q: For N#Cc1c(N)sc2c1C1(CN(c3nc(OC[C@@]45CCCN4C[C@H](F)C5)nc(N4CCC5(CCN5C(=O)n5cncn5)C4)n3)C1)SC2 (stereo partly drawn) [Compound 248, 2-amino-1′-[4-[[(2R,8S)-2-fluoro-1,2,3,5,6,7-hexahydropyrrolizin-8-yl]methoxy]-6-[1-(1,2,4-triazole-1-carbonyl)-1,7-diazaspiro[3.4]octan-7-yl]-1,3,5-triazin-2-yl]spiro[6H-thieno[2,3-c]thiophene-4,3′-azetidine]-3-carbonitrile], which IC50 [1] is on record?
A: 1000 to 20000 nM

Q: N#Cc1c(N)sc2c1C1(CN(c3nc(OC[C@@]45CCCN4C[C@H](F)C5)nc(N4[C@H]5CC[C@@H]4[C@H](C#N)C5)n3)C1)SC2 (racemic) [Compound 279, 2-amino-1′-[4-[(1RS,2RS,4SR)-2-cyano-7-azabicyclo[2.2.1]heptan-7-yl]-6-[[(2R,8S)-2-fluoro-1,2,3,5,6,7-hexahydropyrrolizin-8-yl]methoxy]-1,3,5-triazin-2-yl]spiro[6H-thieno[3,4-b]thiophene-4,3′-azetidine]-3-carbonitrile] was tested. Which IC50 [2, 3] did it give?
A: 0.1 to 1 µM
